Reference: patent US10766902B2, “Wee-1 inhibiting pyrazolopyrimidinone compounds” (ALMAC DISCOVERY LIMITED, priority 2016, dated 2020)
pIC50: −log10 of the molar value.

The compounds below were run against Wee-1 kinase (Homo sapiens (Human), UniProt P30291) (assay: Measurement of Wee-1 kinase activity (ADP-Glo luminescence)). Settings: read-out: Wee1 IC50.
Assay type: biochemical
Protocol: Method 1: Measurement of Wee-1 Kinase Activity
In the measurement of Wee-1 activity, a commercial peptide Poly(Lys Tyr(4:1)) hydrobromide was purchased from Sigma Aldrich and used as the substrate. Activated Wee-1 kinase was purchased from Invitrogen (PV3817) and an ADP-Glo luminescent kit was purchased from Promega.
All reactions took place in […] volumes in reaction buffer containing 40 mM Tris-HCl and 20 mM magnesium chloride, supplemented with 0.1 mg/mL bovine serum albumin and 2 mM DTT. Compounds were serially diluted in buffer and 5 μL of each concentration pipetted into a white 384 well plate (Sigma Aldrich M6186). A 5 μL aliquot of the Wee-1 enzyme was added to each well and the plate centrifuged for 1 min to ensure mixing of the enzyme and inhibitor.
The plate was incubated at room temperature for 30 minutes before the addition of 2.0 μg/mL of substrate and 30 μM ATP in a 5 μL aliquot. The plate was centrifuged for one minute and incubated for 1 h at RT.
15 μL of ADP-Glo stop reagent was added to each well to quench the reaction and deplete unconverted ATP. The plate was incubated for a further 40 min in the dark at RT.
30 μL of ADP-Glo kinase detection reagent was added to each well, converting ADP to ATP, catalysing the generation of luciferin by luciferase. The plate was shaken for 1 min, and incubated in the dark for an additional hour.
Luminescence from each well was detected using the Biotek Synergy4 HD plate reader and the percentage inhibition of kinase activity calculated for each inhibitor tested. Positive (kinase only) and negative (no kinase) controls were added to each plate to ensure specific interaction of kinase and inhibitor. The IC50 concentration for each inhibitor was calculated by plotting the percentage kinase inhibition against concentration of inhibitor and the curve generated by non-linear regression fitting.

Chain of Wee-1 kinase (P30291 whole entry): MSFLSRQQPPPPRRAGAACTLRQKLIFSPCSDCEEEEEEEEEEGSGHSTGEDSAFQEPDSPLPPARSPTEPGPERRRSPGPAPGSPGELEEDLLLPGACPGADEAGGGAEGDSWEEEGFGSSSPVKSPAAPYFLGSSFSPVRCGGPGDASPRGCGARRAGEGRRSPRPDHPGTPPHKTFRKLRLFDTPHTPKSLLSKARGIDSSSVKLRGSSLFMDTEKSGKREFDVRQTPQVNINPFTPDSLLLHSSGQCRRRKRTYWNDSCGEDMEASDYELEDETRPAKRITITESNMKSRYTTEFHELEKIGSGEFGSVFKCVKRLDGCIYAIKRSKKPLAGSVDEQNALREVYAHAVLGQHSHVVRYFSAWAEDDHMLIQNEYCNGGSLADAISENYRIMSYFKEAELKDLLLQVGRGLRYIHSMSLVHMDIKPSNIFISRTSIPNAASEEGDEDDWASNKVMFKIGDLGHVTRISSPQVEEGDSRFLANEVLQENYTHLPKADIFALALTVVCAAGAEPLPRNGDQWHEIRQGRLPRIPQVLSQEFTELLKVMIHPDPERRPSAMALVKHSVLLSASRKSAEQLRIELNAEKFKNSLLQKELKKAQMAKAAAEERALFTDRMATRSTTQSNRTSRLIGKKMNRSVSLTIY

Question: C=CCn1c(=O)c2cnc(Nc3ccc(N(C)C)c(C(O)C(F)(F)F)c3)nc2n1-c1cccc(N=S(C)(C)=O)n1 (racemic) [Example 83, rac-1-(6-{[Dimethyl(oxo)-λ^6-sulfanylidene]amino}pyridin-2-yl)-6-{[4-(dimethylamino)-3-(2,2,2-trifluoro-1-hydroxyethyl)phenyl]amino}-2-(prop-2-en-1-yl)-1H,2H,3H-pyrazolo[3,4-d]pyrimidin-3-one] was tested. Which pIC50 did it give?
Answer: 9.40

Question: With C=CCn1c(=O)c2cnc(Nc3ccc(N4CCNC(C(F)(F)F)C4)cc3)nc2n1-c1cncc(N=S(C)(C)=O)n1 (racemic) [Example 93, rac-1-(6-{[Dimethyl(oxo)-λ^6-sulfanylidene]amino}pyrazin-2-yl)-2-(prop-2-en-1-yl)-6-({4-[3-(trifluoromethyl)piperazin-1-yl]phenyl}amino)-1H,2H,3H-pyrazolo[3,4-d]pyrimidin-3-one] as the compound, how does the pIC50 read?
Answer: 9.40

Question: With C=CCn1c(=O)c2cnc(Nc3ccc(N4CCN(C)CC4)cc3)nc2n1-c1cccc(S(C)(=O)=NC#N)n1 (centres unmarked) [Example 1, 1-{6-[(Cyanoimino)(methyl)oxo-λ^6-sulfanyl]pyridin-2-yl}-6-{[4-(4-methylpiperazin-1-yl)phenyl]amino}-2-(prop-2-en-1-yl)-1H,2H,3H-pyrazolo[3,4-d]pyrimidin-3-one] as the compound, how does the pIC50 read?
Answer: 8.96

Question: C=CCn1c(=O)c2cnc(Nc3ccc(N4CCNCC4)cc3)nc2n1-c1cccc(N=S(C)(C)=O)n1 [Example 6, 1-(6-{[Dimethyl(oxo)-λ^6-sulfanylidene]amino}pyridine-2-yl)-6-{[4-(piperazin-1-yl)phenyl]amino}-2-(prop-2-en-1-yl)-1H,2H,3H-pyrazolo[3,4-d]pyrimidin-3-one] was tested. Which pIC50 did it give?
Answer: 8.74

Question: C=CCn1c(=O)c2cnc(Nc3ccc(N4CCN(C5CC5)CC4)cc3)nc2n1-c1cccc(N=S(C)(C)=O)n1 [Example 8, 6-{[4-(4-Cyclopropylpiperazin-1-yl)phenyl]amino}-1-(6-{[dimethyl(oxo)-λ^6-sulfanylidene]amino}pyridine-2-yl)-2-(prop-2-en-1-yl)-1H,2H,3H-pyrazolo[3,4-d]pyrimidin-3-one] was tested. Which pIC50 did it give?
Answer: 9.52

Question: How did the pIC50 turn out when C=CCn1c(=O)c2cnc(Nc3ccc(N4CCN[C@H](C)C4)cc3)nc2n1-c1cccc(N=S(C)(C)=O)n1 [Example 9, 1-(6-{[Dimethyl(oxo)-λ^6-sulfanylidene]amino}pyridine-2-yl)-6-({4-[(3R)-3-methylpiperazin-1-yl]phenyl}amino)-2-(prop-2-en-1-yl)-1H,2H,3H-pyrazolo[3,4-d]pyrimidin-3-one] was run?
Answer: 8.82

Question: With C=CCn1c(=O)c2cnc(Nc3ccc(N4CCN(CC)CC4)cc3)nc2n1-c1cccc(N=S(C)(C)=O)n1 [Example 10, 1-(6-{[Dimethyl(oxo)-λ^6-sulfanylidene]amino}pyridine-2-yl)-6-{[4-(4-ethylpiperazin-1-yl)phenyl]amino}-2-(prop-2-en-1-yl)-1H,2H,3H-pyrazolo[3,4-d]pyrimidin-3-one] as the compound, how does the pIC50 read?
Answer: 9.05

Question: CCCn1c(=O)c2cnc(Nc3ccc(N4CCN(C)CC4)cc3)nc2n1-c1cccc(N=S(C)(C)=O)n1 [Example 11, 1-(6-{[Dimethyl(oxo)-λ^6-sulfanylidene]amino}pyridine-2-yl)-6-{[4-(4-methylpiperazin-1-yl)phenyl]amino}-2-propyl-1H,2H,3H-pyrazolo[3,4-d]pyrimidin-3-one] was tested. Which pIC50 did it give?
Answer: 8.92

Question: With C=CCn1c(=O)c2cnc(Nc3ccc(C4CCNCC4)cc3)nc2n1-c1cccc(N=S(C)(C)=O)n1 [Example 13, 1-(6-{[Dimethyl(oxo)-λ^6-sulfanylidene]amino}pyridine-2-yl)-6-{[4-(piperidin-4-yl)phenyl]amino}-2-(prop-2-en-1-yl)-1H,2H,3H-pyrazolo[3,4-d]pyrimidin-3-one] as the compound, how does the pIC50 read?
Answer: 8.92

Question: How did the pIC50 turn out when C=CCn1c(=O)c2cnc(Nc3ccc4c(c3)CN(C)CC43CC3)nc2n1-c1cccc(N=S(C)(C)=O)n1 [Example 15, 1-(6-{[Dimethyl(oxo)-λ^6-sulfanylidene]amino}pyridine-2-yl)-6-({2′-methyl-2′,3′-dihydro-1′H-spiro[cyclopropane-1,4′-isoquinoline]-7′-yl}amino)-2-(prop-2-en-1-yl)-1H,2H,3H-pyrazolo[3,4-d]pyrimidin-3-one] was run?
Answer: 9.05

Question: With C=CCn1c(=O)c2cnc(Nc3ccc(N4CCN(C)CC4)cc3)nc2n1-c1cccc(N=S(C)(C)=O)c1 [Example 16, 1-(3-{[Dimethyl(oxo)-λ^6-sulfanylidene]amino}phenyl)-6-{[4-(4-methylpiperazin-1-yl)phenyl]amino}-2-(prop-2-en-1-yl)-1H,2H,3H-pyrazolo[3,4-d]pyrimidin-3-one] as the compound, how does the pIC50 read?
Answer: 9.00

Question: With C=CCn1c(=O)c2cnc(Nc3ccc(N4C[C@@H](C)N[C@@H](C)C4)cc3)nc2n1-c1cccc(N=S(C)(C)=O)n1 [Example 17, 1-(6-{[Dimethyl(oxo)-λ^6-sulfanylidene]amino}pyridin-2-yl)-6-({4-[(3R,5S)-3,5-dimethylpiperazin-1-yl]phenyl}amino)-2-(prop-2-en-1-yl)-1H,2H,3H-pyrazolo[3,4-d]pyrimidin-3-one] as the compound, how does the pIC50 read?
Answer: 8.96

Question: With C=CCn1c(=O)c2cnc(Nc3ccc(N4CCNCC4)cc3)nc2n1-c1cccc(N=S(C)(C)=O)c1 [Example 18, 1-(3-{[Dimethyl(oxo)-λ^6-sulfanylidene]amino}phenyl)-6-{[4-(piperazin-1-yl)phenyl]amino}-2-(prop-2-en-1-yl)-1H,2H,3H-pyrazolo[3,4-d]pyrimidin-3-one] as the compound, how does the pIC50 read?
Answer: 9.10

Question: C=CCn1c(=O)c2cnc(Nc3ccccc3)nc2n1-c1cccc(N=S(C)(C)=O)n1 [Example 19, 1-(6-{[Dimethyl(oxo)-λ^6-sulfanylidene]amino}pyridin-2-yl)-6-(phenylamino)-2-(prop-2-en-1-yl)-1H,2H,3H-pyrazolo[3,4-d]pyrimidin-3-one] was tested. Which pIC50 did it give?
Answer: 9.00

Question: With C=CCn1c(=O)c2cnc(Nc3ccc(N4CCOCC4)c(CNC)c3)nc2n1-c1cccc(N=S(C)(C)=O)c1 [Example 22, 1-(3-{[Dimethyl(oxo)-λ^6-sulfanylidene]amino}phenyl)-6-({3-[(methylamino)methyl]-4-(morpholin-4-yl)phenyl}amino)-2-(prop-2-en-1-yl)-1H,2H,3H-pyrazolo[3,4-d]pyrimidin-3-one] as the compound, how does the pIC50 read?
Answer: 8.59

Question: With C=CCn1c(=O)c2cnc(Nc3ccc(N4CCN(C)CC4)cc3)nc2n1-c1cccc(N=S2(=O)CCCC2)n1 [Example 23, 2-Allyl-6-((4-(4-methylpiperazin-1-yl)phenyl)amino)-1-(6-((1-oxidotetrahydrothiophen-1-ylidene)amino)pyridin-2-yl)-1H-pyrazolo[3,4-d]pyrimidin-3(2H)-one] as the compound, how does the pIC50 read?
Answer: 9.05

Question: How did the pIC50 turn out when C=CCn1c(=O)c2cnc(Nc3ccc(N4CCN(C)CC4)c(OC)c3)nc2n1-c1cccc(N=S(C)(C)=O)n1 [Example 24, 1-(6-{[Dimethyl(oxo)-λ^6-sulfanylidene]amino}pyridin-2-yl)-6-{[3-methoxy-4-(4-methylpiperazin-1-yl)phenyl]amino}-2-(prop-2-en-1-yl)-1H,2H,3H-pyrazolo[3,4-d]pyrimidin-3-one] was run?
Answer: 8.85

Question: C=CCn1c(=O)c2cnc(Nc3ccc(N4CCOCC4)c(OC)c3)nc2n1-c1cccc(N=S(C)(C)=O)n1 [Example 25, 1-(6-{[Dimethyl(oxo)-λ^6-sulfanylidene]amino}pyridin-2-yl)-6-{[3-methoxy-4-(morpholin-4-yl)phenyl]amino}-2-(prop-2-en-1-yl)-1H,2H,3H-pyrazolo[3,4-d]pyrimidin-3-one] was tested. Which pIC50 did it give?
Answer: 9.15

Question: C=CCn1c(=O)c2cnc(Nc3ccc(OCCNC)cc3)nc2n1-c1cccc(N=S(C)(C)=O)c1 [Example 27, 1-(3-{[Dimethyl(oxo)-λ^6-sulfanylidene]amino}phenyl)-6-({4-[2-(methylamino)ethoxy]phenyl}amino)-2-(prop-2-en-1-yl)-1H,2H,3H-pyrazolo[3,4-d]pyrimidin-3-one] was tested. Which pIC50 did it give?
Answer: 8.77

Question: How did the pIC50 turn out when C=CCn1c(=O)c2cnc(Nc3ccc(N4CCN(C)CC4)c(C)c3)nc2n1-c1cccc(N=S(C)(C)=O)n1 [Example 28, 1-(6-{[Dimethyl(oxo)-λ^6-sulfanylidene]amino}pyridin-2-yl)-6-{[3-methyl-4-(4-methylpiperazin-1-yl)phenyl]amino}-2-(prop-2-en-1-yl)-1H,2H,3H-pyrazolo[3,4-d]pyrimidin-3-one] was run?
Answer: 9.15

Question: How did the pIC50 turn out when C=CCn1c(=O)c2cnc(Nc3ccc(N4CCNCC4)c(CO)c3)nc2n1-c1cccc(N=S(C)(C)=O)c1 [Example 29, 1-(3-{[Dimethyl(oxo)-λ^6-sulfanylidene]amino}phenyl)-6-{[3-(hydroxymethyl)-4-(piperazin-1-yl)phenyl]amino}-2-(prop-2-en-1-yl)-1H,2H,3H-pyrazolo[3,4-d]pyrimidin-3-one] was run?
Answer: 9.05

Question: C=CCn1c(=O)c2cnc(Nc3ccc(N4CCN(C)CC4)c(CO)c3)nc2n1-c1cccc(N=S(C)(C)=O)c1 [Example 30, 1-(3-{[Dimethyl(oxo)-λ^6-sulfanylidene]amino}phenyl)-6-{[3-(hydroxymethyl)-4-(4-methylpiperazin-1-yl)phenyl]amino}-2-(prop-2-en-1-yl)-1H,2H,3H-pyrazolo[3,4-d]pyrimidin-3-one] was tested. Which pIC50 did it give?
Answer: 9.30

Question: How did the pIC50 turn out when C=CCn1c(=O)c2cnc(Nc3ccc(N4CCOCC4)cc3)nc2n1-c1cccc(N=S(C)(C)=O)c1 [Example 31, 1-(3-{[Dimethyl(oxo)-λ^6-sulfanylidene]amino}phenyl)-6-{[4-(morpholin-4-yl)phenyl]amino}-2-(prop-2-en-1-yl)-1H,2H,3H-pyrazolo[3,4-d]pyrimidin-3-one] was run?
Answer: 8.85
